# Measured values published in PubChem BioAssay AID1918930 (Molecular Pharmacology Branch, DTP, NCI, 2023).
# Where “and” joins values, the source holds several entries; their conditions need not be identical. Identical values can stand only once.
# System: 233499-124-R-J3-PDC complex spheroid viability, % test/control
# Test: Anticancer human tumor 233499-124-R-J3-PDC patient-derived colon adenocarcinoma cell line growth inhibition
# Conditions: for viability, T/C: stronger effect = lower value
# Procedure, shortened: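 Multicellular complex spheroids of tumor cells with human endothelial cells (HUVEC) and mesenchymal stem cells; the LSD1 inhibitor iadademstat was combined with standard-of-care or investigational agents. Top concentration at or near clinical Cmax, half-log dilutions; final DMSO ≤0.25%.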
# 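Further: spheroids exposed to agents for one week before readout.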
smiles,measurement,setting,value
O=C(C=Cc1cccc(S(=O)(=O)Nc2ccccc2)c1)NO + NC1CCC(NC2CC2c2ccccc2)CC1,IC50,"curve of first compound, second compound 0.1 µM",> 3 µM
same,IC50,"curve of first compound, second compound 0.316 µM",> 3 µM
same,IC50,"curve of first compound, second compound 1 µM",3 µM
same,IC50,"curve of first compound, second compound 3.16 µM",> 3 µM
same,IC50,"curve of first compound, second compound 10 µM",3 µM
same,"viability, T/C","second compound 0.1 µM, first compound 0.00949 µM",105%
same,"viability, T/C","second compound 0.1 µM, first compound 0.03 µM",115%
same,"viability, T/C","second compound 0.1 µM, first compound 0.0949 µM",122%
same,"viability, T/C","second compound 0.1 µM, first compound 0.3 µM",134%
same,"viability, T/C","second compound 0.1 µM, first compound 0.949 µM",51.9%
same,"viability, T/C","second compound 0.1 µM, first compound 3 µM",110%
same,"viability, T/C","second compound 0.316 µM, first compound 0.00949 µM",101%
same,"viability, T/C","second compound 0.316 µM, first compound 0.03 µM",108%
same,"viability, T/C","second compound 0.316 µM, first compound 0.0949 µM",128%
same,"viability, T/C","second compound 0.316 µM, first compound 0.3 µM",120%
same,"viability, T/C","second compound 0.316 µM, first compound 0.949 µM",47.7%
same,"viability, T/C","second compound 0.316 µM, first compound 3 µM",106%
same,"viability, T/C","second compound 1 µM, first compound 0.00949 µM",81.3%
same,"viability, T/C","second compound 1 µM, first compound 0.03 µM",105%
same,"viability, T/C","second compound 1 µM, first compound 0.0949 µM",108%
same,"viability, T/C","second compound 1 µM, first compound 0.3 µM",109%
same,"viability, T/C","second compound 1 µM, first compound 0.949 µM",44.7%
same,"viability, T/C","second compound 1 µM, first compound 3 µM",78.8%
same,"viability, T/C","second compound 3.16 µM, first compound 0.00949 µM",101%
same,"viability, T/C","second compound 3.16 µM, first compound 0.03 µM",101%
same,"viability, T/C","second compound 3.16 µM, first compound 0.0949 µM",102%
same,"viability, T/C","second compound 3.16 µM, first compound 0.3 µM",116%
same,"viability, T/C","second compound 3.16 µM, first compound 0.949 µM",38.5%
same,"viability, T/C","second compound 3.16 µM, first compound 3 µM",89.3%
same,"viability, T/C","second compound 10 µM, first compound 0.00949 µM",79.2%
same,"viability, T/C","second compound 10 µM, first compound 0.03 µM",85.5%
same,"viability, T/C","second compound 10 µM, first compound 0.0949 µM",78.8%
same,"viability, T/C","second compound 10 µM, first compound 0.3 µM",117%
same,"viability, T/C","second compound 10 µM, first compound 0.949 µM",32.9%
same,"viability, T/C","second compound 10 µM, first compound 3 µM",76.3%
Cn1ncnc1C1c2n[nH]c(=O)c3cc(F)cc(c23)NC1c1ccc(F)cc1 (configuration not stated),"viability, T/C",compound 0.000316 µM,105% and 92.2%
same,"viability, T/C",compound 0.001 µM,95.1% and 80.9%
same,"viability, T/C",compound 0.00316 µM,91.4% and 98%
same,"viability, T/C",compound 0.01 µM,77.6% and 88.7%
same,"viability, T/C",compound 0.0316 µM,77.7% and 85.1%
same,"viability, T/C",compound 0.1 µM,93.4% and 82.7%
same,IC50,curve of compound,> 0.1 µM
